From patent US20240239755A1, “SUBSTITUTED PYRIDAZINONES, SALTS OR N-OXIDES THEREOF AND THEIR USE AS HERBICIDALLY ACTIVE SUBSTANCES” (Bayer Aktiengesellschaft, priority 2021, published 2024)

Columns and labels:
Format in all cases: in vivo
Kochia scoparia (KCHSC) [1] = test: Herbicidal pre-emergence action, 1280 g/ha (Table A4); settings: visual grading after ca. 3 weeks vs untreated controls
Method in brief: (§1)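 Seeds are sown and covered with sandy loam soil, then the soil surface is treated with compound suspension or emulsion (0.5% additive, 600 L water/ha). Plants grow in a greenhouse under optimum conditions, and damage is rated visually at ca. 3 weeks against untreated controls.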

Lolium rigidum (LOLRI) [2] = test: Herbicidal pre-emergence action, 1280 g/ha (Table A5); settings: visual grading after ca. 3 weeks vs untreated controls
Method in brief: as §1

[3] = tested on: Matricaria inodora (MATIN); test: Herbicidal pre-emergence action, 1280 g/ha (Table A6); settings: visual grading after ca. 3 weeks vs untreated controls
Method in brief: as §1

Stellaria media (STEME) [4] = test: Herbicidal pre-emergence action, 1280 g/ha (Table A9); settings: visual grading after ca. 3 weeks vs untreated controls
Method in brief: as §1

Veronica persica (VERPE) [5] = test: Herbicidal pre-emergence action, 1280 g/ha (Table A10); settings: visual grading after ca. 3 weeks vs untreated controls
Source text: (§2) Seeds of mono- and dicotyledonous weed plants were sown in plastic pots (double sowings with one species of mono- and one species of dicotyledonous weed plants per pot), in sandy loam, and covered with soil. The compounds according to the invention, formulated in the form of wettable powders (WP) or as emulsifiable concentrates (EC), were applied to the surface of the covering soil as an aqueous suspension or as an emulsion, with the addition of 0.5% of an additive, at an application rate of 600 litres of water per hectare (converted). Following treatment, the pots were placed in a greenhouse and kept under optimum growth conditions for the test plants. The visual grading of the damage to the test plants was carried out after ca. 3 weeks in comparison to untreated controls (herbicidal effect in percent (%): 100% effect=plants have died, 0% effect=as control plants). Tables A1 to A11 below, show the effects of selected compounds of the general formula (I) according to Table 1 on various harmful plants and an application rate corresponding to 1280 g/ha obtained by the experimental procedure mentioned above.

[6] = tested on: Amaranthus retroflexus (AMARE); test: Herbicidal pre-emergence action, 1280 g/ha (Table A11); settings: visual grading after ca. 3 weeks vs untreated controls
Method in brief: as §1

[7] = tested on: Abutilon theophrasti (ABUTH); test: Herbicidal post-emergence action, 1280 g/ha (Table B1); settings: visual assessment after ca. 3 weeks vs untreated controls
Method in brief: (§3)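 Foliar application to single-leaf weeds in sandy loam; percent kill judged visually ca. 3 weeks later relative to untreated plants.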

[8] = tested on: Echinochloa crus-galli (ECHCG); test: Herbicidal post-emergence action, 1280 g/ha (Table B3); settings: visual assessment after ca. 3 weeks vs untreated controls
Source text: (§4) Seeds of mono- and dicotyledonous weed plants were sown in plastic pots (double sowings with one species of mono- and one species of dicotyledonous weed plants per pot), in sandy loam, covered with soil and grown under controlled growth conditions. 2 to 3 weeks after sowing, the test plants were sprayed in the single-leaf stage. The compounds according to the invention, formulated in the form of wettable powders (WP) or as emulsifiable concentrates (EC), were sprayed onto the green plant parts as an aqueous suspension or as an emulsion, with the addition of 0.5% of an additive, at an application rate of 600 litres of water per hectare (converted). The test plants were placed in the greenhouse for ca. 3 weeks under optimum growth conditions, and then the effect of the preparations was assessed visually in comparison with untreated controls (herbicidal effect in percent (%): 100% effect=plants have died, 0% effect=as control plants). Tables B1 to B11 below, show the effects of selected compounds of the general formula (I) according to Table 1 on various harmful plants using an application rate corresponding to 1280 g/ha obtained by the experimental procedure mentioned above.

Kochia scoparia (KCHSC) [9] = test: Herbicidal post-emergence action, 1280 g/ha (Table B4); settings: visual assessment after ca. 3 weeks vs untreated controls
Method in brief: as §3

Lolium rigidum (LOLRI) [10] = test: Herbicidal post-emergence action, 1280 g/ha (Table B5); settings: visual assessment after ca. 3 weeks vs untreated controls
Method in brief: as §3

[11] = tested on: Matricaria inodora (MATIN); test: Herbicidal post-emergence action, 1280 g/ha (Table B6); settings: visual assessment after ca. 3 weeks vs untreated controls
Method in brief: as §3

Setaria viridis (SETVI) [12] = test: Herbicidal post-emergence action, 1280 g/ha (Table B8); settings: visual assessment after ca. 3 weeks vs untreated controls
Method in brief: as §3

Stellaria media (STEME) [13] = test: Herbicidal post-emergence action, 1280 g/ha (Table B9); settings: visual assessment after ca. 3 weeks vs untreated controls
Method in brief: as §3

Veronica persica (VERPE) [14] = test: Herbicidal post-emergence action, 1280 g/ha, VERPE; settings: visual grading vs untreated controls
Method in brief: (§5)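 Visual rating ~3 weeks after treatment: 0% equals untreated control, 100% means plants died. Treatment was a 1280 g/ha foliar spray (600 L water/ha, 0.5% additive, WP or EC formulation) applied to single-leaf-stage plants grown 2–3 weeks in sandy loam under controlled conditions.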

[15] = tested on: Amaranthus retroflexus (AMARE); test: Herbicidal post-emergence action, 1280 g/ha, AMARE; settings: visual grading vs untreated controls
Method in brief: as §5

Lolium rigidum (LOLRI) [16] = test: Herbicidal pre-emergence action, 320 g/ha (Table C2); settings: visual grading after ca. 3 weeks vs untreated controls
Method in brief: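 Herbicidal effect was graded by eye roughly 3 weeks after treatment, from 0% (as control) to 100% (dead plants). Weed seeds sown in sandy loam were covered and sprayed on the soil surface with WP/EC suspensions or emulsions, 0.5% additive, 600 L water/ha, then kept in a greenhouse.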

[17] = tested on: Matricaria inodora (MATIN); test: Herbicidal pre-emergence action, 320 g/ha (Table C3); settings: visual grading after ca. 3 weeks vs untreated controls
Source text: as §2, with “Tables C1” for “Tables A1”, “to C6” for “to A11”, “plants using” for “plants and”, “to 320” for “to 1280”

Stellaria media (STEME) [18] = test: Herbicidal pre-emergence action, 320 g/ha, STEME; settings: visual grading after ca. 3 weeks
Method in brief: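 Percent herbicidal effect, graded by eye about 3 weeks after treatment relative to untreated pots (0% matching controls, 100% dead plants). Application of 320 g/ha onto soil covering freshly sown seeds, as aqueous suspension or emulsion plus 0.5% additive at 600 L/ha; pots kept in greenhouse.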

[19] = tested on: Amaranthus retroflexus (AMARE); test: Herbicidal pre-emergence action, 320 g/ha, AMARE; settings: visual grading after ca. 3 weeks
Source text: as §2, with “plants).” for “plants). Tables A1 to A11 below, show the effects of selected compounds of the general formula (I) according to Table 1 on various harmful plants and an application rate corresponding to 1280 g/ha obtained by the experimental procedure mentioned above.”
(§6) Tables C1 to C6 below, show the effects of selected compounds of the general formula (I) according to Table 1 on various harmful plants using an application rate corresponding to 320 g/ha obtained by the experimental procedure mentioned above.

[20] = tested on: Abutilon theophrasti (ABUTH); test: Herbicidal post-emergence action, 320 g/ha, ABUTH; settings: visual grading after ca. 3 weeks
Method in brief: (§7)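 Test compounds, formulated as wettable powders or emulsifiable concentrates with 0.5% additive, are sprayed onto green parts of single-leaf-stage weeds at a water volume of 600 L/ha. Percent effect is judged by eye after roughly three weeks under optimum greenhouse conditions.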

Lolium rigidum (LOLRI) [21] = test: Herbicidal post-emergence action, 320 g/ha, LOLRI; settings: visual grading after ca. 3 weeks
Source text: as §4, with “plants).” for “plants). Tables B1 to B11 below, show the effects of selected compounds of the general formula (I) according to Table 1 on various harmful plants using an application rate corresponding to 1280 g/ha obtained by the experimental procedure mentioned above.”
Tables D1 to D8 below, show the effects of selected compounds of the general formula (I) according to Table 1 on various harmful plants using an application rate corresponding to 320 g/ha obtained by the experimental procedure mentioned above.

Stellaria media (STEME) [22] = test: Herbicidal post-emergence action, 320 g/ha, STEME; settings: visual grading after ca. 3 weeks
Method in brief: as §7

[23] = tested on: Amaranthus retroflexus (AMARE); test: Herbicidal post-emergence action, 320 g/ha, AMARE; settings: visual grading after ca. 3 weeks
Method in brief: as §7

Kochia scoparia (KCHSC) [24] = test: Herbicidal pre-emergence action, 320 g/ha (Table C1); settings: visual grading after ca. 3 weeks vs untreated controls
Source text: as §2, with “Tables C1” for “Tables A1”, “to C6” for “to A11”, “plants using” for “plants and”, “to 320” for “to 1280”

Veronica persica (VERPE) [25] = test: Herbicidal post-emergence action, 320 g/ha, VERPE; settings: visual grading after ca. 3 weeks
Method in brief: as §7

[26] = tested on: Abutilon theophrasti (ABUTH); test: Herbicidal pre-emergence action, 1280 g/ha (Table A1); settings: visual grading after ca. 3 weeks vs untreated controls
Method in brief: as §1

Poa annua (POAAN) [27] = test: Herbicidal pre-emergence action, 1280 g/ha (Table A7); settings: visual grading after ca. 3 weeks vs untreated controls
Method in brief: as §1

Setaria viridis (SETVI) [28] = test: Herbicidal pre-emergence action, 1280 g/ha (Table A8); settings: visual grading after ca. 3 weeks vs untreated controls
Method in brief: as §1

Poa annua (POAAN) [29] = test: Herbicidal pre-emergence action, 320 g/ha, POAAN; settings: visual grading after ca. 3 weeks
Source text: as §2, with “plants).” for “plants). Tables A1 to A11 below, show the effects of selected compounds of the general formula (I) according to Table 1 on various harmful plants and an application rate corresponding to 1280 g/ha obtained by the experimental procedure mentioned above.”
as §6

Kochia scoparia (KCHSC) [30] = test: Herbicidal post-emergence action, 320 g/ha, KCHSC; settings: visual grading after ca. 3 weeks
Method in brief: as §7

| Structure (SMILES) | herbicidal effect KCHSC (Kochia scoparia (KCHSC) [1]) [%] | herbicidal effect LOLRI (Lolium rigidum (LOLRI) [2]) [%] | herbicidal effect MATIN [3] [%] | herbicidal effect STEME (Stellaria media (STEME) [4]) [%] | herbicidal effect VERPE (Veronica persica (VERPE) [5]) [%] | herbicidal effect AMARE [6] [%] | herbicidal effect ABUTH [7] [%] | herbicidal effect KCHSC (Kochia scoparia (KCHSC) [9]) [%] | herbicidal effect LOLRI (Lolium rigidum (LOLRI) [10]) [%] | herbicidal effect MATIN [11] [%] | herbicidal effect STEME (Stellaria media (STEME) [13]) [%] | herbicidal effect VERPE (Veronica persica (VERPE) [14]) [%] | herbicidal effect AMARE [15] [%] | herbicidal effect LOLRI (Lolium rigidum (LOLRI) [16]) [%] | herbicidal effect STEME (Stellaria media (STEME) [18]) [%] | herbicidal effect AMARE [19] [%] | herbicidal effect ABUTH [20] [%] | herbicidal effect LOLRI (Lolium rigidum (LOLRI) [21]) [%] | herbicidal effect STEME (Stellaria media (STEME) [22]) [%] | herbicidal effect AMARE [23] [%] | other results |
| --- | --- | --- | --- | --- | --- | --- | --- | --- | --- | --- | --- | --- | --- | --- | --- | --- | --- | --- | --- | --- | --- |
| CC(=O)Oc1c(C)nn(C)c(=O)c1Oc1ccccc1C(F)(F)F [Example I-030] | 90 | 100 | 100 | 100 | 90 | 100 | 100 | 90 | 90 | 90 | 100 | 90 | 90 | 90 | 100 | 90 | 90 | 90 | 90 | 90 | herbicidal effect ECHCG [8]: 90%; herbicidal effect SETVI (Setaria viridis (SETVI) [12]): 90%; herbicidal effect MATIN [17]: 100% |
| Cc1nn(C)c(=O)c(Oc2ccc(Cl)cc2)c1O [Example I-002] | 90 | – | – | – | – | – | – | – | – | – | – | – | – | – | – | – | – | – | – | – | herbicidal effect KCHSC (Kochia scoparia (KCHSC) [24]): 90% |
| Cc1nn(C)c(=O)c(Oc2cc(F)c(F)cc2C2CC2)c1OC(=O)C(C)C [Example I-102] | 90 | 90 | 100 | 100 | – | 100 | 100 | 100 | 90 | 100 | 100 | 90 | 100 | – | 90 | – | – | – | 90 | 90 | herbicidal effect KCHSC (Kochia scoparia (KCHSC) [24]): 90%; herbicidal effect VERPE (Veronica persica (VERPE) [25]): 90% |
| CCOC(=O)Oc1c(C)nn(C)c(=O)c1Oc1cc(Cl)ccc1Cl [Example I-086] | – | 100 | 100 | 100 | 90 | 90 | 90 | – | 100 | 90 | 100 | – | 100 | 90 | – | – | – | 90 | 90 | 90 | – |
| CCOC(=O)Oc1c(C)nn(C)c(=O)c1Oc1ccccc1C1CC1 [Example I-012] | 100 | 100 | 90 | 100 | – | 100 | 100 | 100 | 100 | 100 | 100 | 90 | 90 | – | 90 | 100 | 100 | 100 | 100 | – | herbicidal effect ABUTH [26]: 100%; herbicidal effect POAAN (Poa annua (POAAN) [27]): 90%; herbicidal effect SETVI (Setaria viridis (SETVI) [28]): 100%; herbicidal effect POAAN (Poa annua (POAAN) [29]): 90%; herbicidal effect KCHSC (Kochia scoparia (KCHSC) [30]): 100% |
